target: T1, cellular PARG (Homo sapiens, UniProt Q86W56); test: Nuclear PAR accumulation assay (immunofluorescence high-content imaging, MMS-treated HeLa cells); type: cell-based; details: 1 hour compound then MMS 50 μg/mL for an additional hour
T1 construct: endogenous in cells; host or cells: HeLa
In short: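 HeLa cells pretreated with compound for 1 h at 37° C, then given 50 μg/mL MMS for another hour. After methanol fixation, PAR was immunostained with DAPI nuclear counterstain; per-nucleus intensity and percent PAR-positive cells were imaged at 20× (≥1,000 cells/well). IC50 from four-parameter logistic fit.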

T1 sequence (Q86W56 whole entry): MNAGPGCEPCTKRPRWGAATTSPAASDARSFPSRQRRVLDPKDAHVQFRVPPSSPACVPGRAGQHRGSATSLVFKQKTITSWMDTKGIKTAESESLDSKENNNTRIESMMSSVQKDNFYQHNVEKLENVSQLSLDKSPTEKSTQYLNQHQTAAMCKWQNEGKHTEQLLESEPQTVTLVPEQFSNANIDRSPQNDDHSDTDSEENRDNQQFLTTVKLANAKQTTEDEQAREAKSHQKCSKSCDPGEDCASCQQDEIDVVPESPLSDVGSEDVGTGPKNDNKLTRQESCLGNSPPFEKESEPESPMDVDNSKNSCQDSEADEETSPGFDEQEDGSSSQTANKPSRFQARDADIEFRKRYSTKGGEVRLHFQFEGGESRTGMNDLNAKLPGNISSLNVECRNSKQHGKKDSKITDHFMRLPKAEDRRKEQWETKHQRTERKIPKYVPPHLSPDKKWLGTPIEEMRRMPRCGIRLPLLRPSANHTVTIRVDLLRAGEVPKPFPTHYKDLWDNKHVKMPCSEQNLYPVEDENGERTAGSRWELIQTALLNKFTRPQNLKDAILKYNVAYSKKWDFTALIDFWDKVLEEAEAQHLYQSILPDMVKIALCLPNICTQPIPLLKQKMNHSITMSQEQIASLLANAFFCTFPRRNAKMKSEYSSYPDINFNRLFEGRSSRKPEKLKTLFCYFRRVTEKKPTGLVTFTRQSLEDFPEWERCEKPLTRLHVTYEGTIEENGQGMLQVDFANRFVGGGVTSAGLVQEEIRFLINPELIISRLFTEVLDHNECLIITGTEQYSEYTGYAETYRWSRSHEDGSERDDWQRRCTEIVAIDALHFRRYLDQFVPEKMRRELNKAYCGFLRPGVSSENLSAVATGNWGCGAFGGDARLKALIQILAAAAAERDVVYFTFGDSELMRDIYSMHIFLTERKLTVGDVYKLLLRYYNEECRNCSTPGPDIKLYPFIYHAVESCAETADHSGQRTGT

| Structure (SMILES) | IC50 [nM] |
| --- | --- |
| Cn1cc(CN2C(=O)c3cc(S(=O)(=O)NC4(C)CC4)ccc3N3C2=NC[C@H]3C#Cc2ncnn2C)cn1 [Example 196, (R)-1-((1-methyl-1H-1,2,4-triazol-5-yl)ethynyl)-4-((1-methyl-1H-pyrazol-4-yl)methyl)-N-(1-methylcyclopropyl)-5-oxo-1,2,4,5-tetrahydroimidazo[1,2-a]quinazoline-7-sulfonamide] | < 100 |
| CCN1C(=O)c2cc(S(=O)(=O)NC3(C)CC3)ccc2N2C1=NC[C@H]2C#Cc1ccnn1C [Example 198, (R)-4-ethyl-1-((1-methyl-1H-pyrazol-5-yl)ethynyl)-N-(1-methylcyclopropyl)-5-oxo-1,2,4,5-tetrahydroimidazo[1,2-a]quinazoline-7-sulfonamide] | < 100 |
| CN1C(=O)c2cc(S(=O)(=O)NC3(C)CC3)ccc2N2C1=NCC2C#Cc1ccc(C#N)nc1 (centres unmarked) [Example 202, 1-((6-cyanopyridin-3-yl)ethynyl)-4-methyl-N-(1-methylcyclopropyl)-5-oxo-1,2,4,5-tetrahydroimidazo[1,2-a]quinazoline-7-sulfonamide] | < 100 |
| Cc1ccc(C#CC2CN=C3N(C)C(=O)c4cc(S(=O)(=O)NC5(C)CC5)ccc4N32)cn1 (centres unmarked) [Example 203, 4-methyl-N-(1-methylcyclopropyl)-1-((6-methylpyridin-3-yl)ethynyl)-5-oxo-1,2,4,5-tetrahydroimidazo[1,2-a]quinazoline-7-sulfonamide] | < 100 |
| COc1ccc(C#CC2CN=C3N(C)C(=O)c4cc(S(=O)(=O)NC5(C)CC5)ccc4N32)cn1 (centres unmarked) [Example 204, 1-((6-methoxypyridin-3-yl)ethynyl)-4-methyl-N-(1-methylcyclopropyl)-5-oxo-1,2,4,5-tetrahydroimidazo[1,2-a]quinazoline-7-sulfonamide] | < 100 |
| CCN1C(=O)c2cc(S(=O)(=O)NC3(C)CC3)ccc2N2C1=NC[C@H]2C#Cc1cnn2c1OCC(NC)C2 (stereo partly drawn) [Example 205, (1R)-4-ethyl-1-((6-(methylamino)-6,7-dihydro-5H-pyrazolo[5,i-b][1,3]oxazin-3-yl)ethynyl)-N-(1-methylcyclopropyl)-5-oxo-1,2,4,5-tetrahydroimidazo[1,2-a]quinazoline-7-sulfonamide] | 100 to 1000 |
| CCN1C(=O)c2cc(S(=O)(=O)NC3(C)CC3)ccc2N2C1=NC[C@H]2C#Cc1cnc2cc(C#N)cnn12 [Example 206, (R)-1-((7-cyanoimidazo[1,2-b]pyridazin-3-yl)ethynyl)-4-ethyl-N-(1-methylcyclopropyl)-5-oxo-1,2,4,5-tetrahydroimidazo[1,2-a]quinazoline-7-sulfonamide] | < 100 |

The remaining lines, values ahead:

| IC50 [nM] | Structure (SMILES) |
| --- | --- |
| < 100 | CCN1C(=O)c2cc(S(=O)(=O)NC3(C)CC3)ccc2N2C1=NC[C@H]2C#Cc1cc(CN(C)C)nn1C [Example 195, (R)-1-((3-((dimethylamino)methyl)-1-methyl-1H-pyrazol-5-yl)ethynyl)-4-ethyl-N-(1-methylcyclopropyl)-5-oxo-1,2,4,5-tetrahydroimidazo[1,2-a]quinazoline-7-sulfonamide] |
| < 100 | CN1C(=O)c2cc(S(=O)(=O)NC3(C)CC3)ccc2N2C1=NC[C@H]2C#Cc1cnn(C)c(=O)c1 [Example 199, (R)-4-methyl-1-((1-methyl-6-oxo-1,6-dihydropyridazin-4-yl)ethynyl)-N-(1-methylcyclopropyl)-5-oxo-1,2,4,5-tetrahydroimidazo[1,2-a]quinazoline-7-sulfonamide] |
| 100 to 1000 | CN1C(=O)c2cc(S(=O)(=O)NC3(C)CC3)ccc2N2C1=NCC2C#Cc1ccn(C)c(=O)c1 (centres unmarked) [Example 200, 4-methyl-1-((1-methyl-2-oxo-1,2-dihydropyridin-4-yl)ethynyl)-N-(1-methylcyclopropyl)-5-oxo-1,2,4,5-tetrahydroimidazo[1,2-a]quinazoline-7-sulfonamide] |
| < 100 | CN1C(=O)c2cc(S(=O)(=O)NC3(C)CC3)ccc2N2C1=NC[C@H]2C#Cc1cnc2ccc(C(F)(F)F)nn12 [Example 201, (R)-4-methyl-N-(1-methylcyclopropyl)-5-oxo-1-((6-(trifluoromethyl)imidazo[1,2-b]pyridazin-3-yl)ethynyl)-1,2,4,5-tetrahydroimidazo[1,2-a]quinazoline-7-sulfonamide] |

Reference: patent US20260285875A1, “INHIBITORS OF PARG” (858 Therapeutics, Inc., priority 2023, published 2026)
